From US9370507B2, “Pyridonyl guanidine F1F0-ATPase inhibitors and therapeutic uses thereof” (Lycera Corporation, priority 2010, dated 2016)

Columns and labels:
F1F0-ATPase = biological target: T1, F1F0-ATPase (Bos taurus, UniProt P13621); assay: Inhibition of F1F0-ATPase activity in synthesizing ATP; assay type: biochemical; conditions: inhibition of ATP synthesis; read-out: ATP Syn IC50
T1 construct: from tissue
Experimental: (§1) The compounds listed in Table 4 were tested for activity against F1F0-ATPase by measuring the ability of the compounds to inhibit ATP synthesis. In addition, the compounds were assessed for cytotoxicity in Ramos cells Inhibition of F1F0-ATPase activity in synthesizing ATP and cytotoxicity in Ramos cells were measured according to the procedures described in K. M. Johnson et al. Chemistry & Biology 2005, 12, 485-496.

Ramos cells = assay: Cytotoxicity in Ramos cells; assay type: cell-based; conditions: Homo sapiens, read-out: Ramos Cell EC50
Experimental: as §1

SMILES	IC50 (F1F0-ATPase)	EC50 (Ramos cells)
CC(=O)N(Cc1ccc(F)c(Cl)c1)/C(=N/C(=O)c1ccc(C(F)(F)F)cc1)Nc1cccc(O)n1 [Compound A-65]	< 10 µM	< 10 µM
COc1cccc(N/C(=N\C(=O)c2ccc(C(F)(F)F)cc2)NCc2ccc(Cl)c(F)c2)n1 [Compound A-66]	> 10 µM	> 10 µM
CC(NC(=NC(=O)c1ccc(C(F)(F)F)cc1)Nc1cccc(O)n1)c1ccccc1Cl (stereo not shown) [Compound A-67]	< 10 µM	< 10 µM
CC(NC(=NC(=O)c1ccc(C(F)(F)F)cc1)Nc1cccc(O)n1)c1cccc(Cl)c1 (stereo not shown) [Compound A-68]	< 10 µM	< 10 µM
CC(NC(=NC(=O)c1ccc(C(F)(F)F)cc1)Nc1cccc(O)n1)c1ccc(Cl)cc1 (stereo not shown) [Compound A-69]	< 10 µM	< 10 µM
O=C(/N=C(/NCc1ccccc1Cl)Nc1cccc(O)n1)c1ccc(F)c(F)c1 [Compound A-71]	< 10 µM	< 10 µM
O=C(/N=C(/NCc1cccc(Cl)c1)Nc1cccc(O)n1)c1ccc(F)c(F)c1 [Compound A-72]	< 10 µM	< 10 µM
O=C(/N=C(/NCc1ccccc1C(F)(F)F)Nc1cccc(O)n1)c1ccc(F)c(F)c1 [Compound A-73]	< 10 µM	< 10 µM
O=C(/N=C(/NCc1cccc(C(F)(F)F)c1)Nc1cccc(O)n1)c1ccc(F)c(F)c1 [Compound A-74]	< 10 µM	< 10 µM
O=C(/N=C(/NCc1cc(F)c(F)c(F)c1)Nc1cccc(O)n1)c1ccc(F)c(F)c1 [Compound A-75]	> 10 µM	> 10 µM
O=C(/N=C(/NCc1ccc(Cl)cc1)Nc1cccc(O)n1)c1ccc(Cl)cc1 [Compound A-76]	< 10 µM	< 10 µM
O=C(/N=C(/NCc1ccccc1C(F)(F)F)Nc1cccc(O)n1)c1ccc(Cl)cc1 [Compound A-77]	< 10 µM	< 10 µM
O=C(/N=C(/NCc1ccc(C(F)(F)F)cc1)Nc1cccc(O)n1)c1ccc(Cl)cc1 [Compound A-79]	< 10 µM	< 10 µM
O=C(/N=C(/NCc1ccc(F)c(F)c1)Nc1cccc(O)n1)c1ccc(Cl)cc1 [Compound A-80]	< 10 µM	< 10 µM
O=C(/N=C(/NCc1ccc(F)cc1Cl)Nc1cccc(O)n1)c1ccc(Cl)cc1 [Compound A-81]	< 10 µM	< 10 µM
O=C(/N=C(/NCc1ccc(F)c(Cl)c1)Nc1cccc(O)n1)c1ccc(Cl)cc1 [Compound A-82]	< 10 µM	< 10 µM
O=C(/N=C(/NCc1ccc(Cl)c(F)c1)Nc1cccc(O)n1)c1ccc(Cl)cc1 [Compound A-83]	< 10 µM	< 10 µM
O=C(/N=C(/NCc1ccc(Cl)cc1F)Nc1cccc(O)n1)c1ccc(Cl)cc1 [Compound A-84]	< 10 µM	> 10 µM
O=C(/N=C(/NCc1ccc(F)cc1)Nc1cccc(O)n1)c1ccc(C(F)(F)F)cc1 [Compound A-85]	< 10 µM	< 10 µM
O=C(/N=C(/NCc1cccc(F)c1F)Nc1cccc(O)n1)c1ccc(C(F)(F)F)cc1 [Compound A-86]	< 10 µM	< 10 µM
O=C(/N=C(/NCc1ccccc1Cl)Nc1cccc(O)n1)c1ccc(Cl)cc1 [Compound A-87]	< 10 µM	< 10 µM

SMILES	IC50 (F1F0-ATPase)	EC50 (Ramos cells)
O=C(/N=C(/NCc1cccc(Cl)c1)Nc1cccc(O)n1)c1ccc(Cl)cc1 [Compound A-88]	< 10 µM	< 10 µM
O=C(/N=C(\Nc1cccc(O)n1)NC1CCCC1)c1ccc(C(F)(F)F)cc1 [Compound A-89]	< 10 µM	< 10 µM
CCC(C)(C)N/C(=N/C(=O)c1ccc(C(F)(F)F)cc1)Nc1cccc(O)n1 [Compound A-90]	< 10 µM	< 10 µM
C[C@@H](N/C(=N/C(=O)c1ccc(C(F)(F)F)cc1)Nc1cccc(O)n1)C1CCCCC1 [Compound A-91]	< 10 µM	< 10 µM
O=C(/N=C(\Nc1cccc(O)n1)NC1CCOCC1)c1ccc(C(F)(F)F)cc1 [Compound A-92]	< 10 µM	< 10 µM
O=C(/N=C(\Nc1cccc(O)n1)NC1CCCOC1)c1ccc(C(F)(F)F)cc1 (stereo not shown) [Compound A-93]	< 10 µM	< 10 µM
COCC(C)N/C(=N/C(=O)c1ccc(C(F)(F)F)cc1)Nc1cccc(O)n1 (stereo not shown) [Compound A-94]	< 10 µM	> 10 µM
O=C(/N=C(\Nc1cccc(O)n1)NC1CCCC1)c1ccc(F)c(F)c1 [Compound A-95]	< 10 µM	< 10 µM
CCC(C)(C)N/C(=N/C(=O)c1ccc(F)c(F)c1)Nc1cccc(O)n1 [Compound A-96]	< 10 µM	< 10 µM
C[C@@H](N/C(=N/C(=O)c1ccc(F)c(F)c1)Nc1cccc(O)n1)C1CCCCC1 [Compound A-97]	< 10 µM	< 10 µM
O=C(/N=C(\Nc1cccc(O)n1)NC1CCOCC1)c1ccc(F)c(F)c1 [Compound A-98]	> 10 µM	> 10 µM
O=C(/N=C(\Nc1cccc(O)n1)NC1CCCOC1)c1ccc(F)c(F)c1 (stereo not shown) [Compound A-99]	> 10 µM	> 10 µM
COCC(C)N/C(=N/C(=O)c1ccc(F)c(F)c1)Nc1cccc(O)n1 (stereo not shown) [Compound A-100]	> 10 µM	> 10 µM
O=C(/N=C(\Nc1cccc(O)n1)NC1CCCC1)c1ccc(Cl)cc1 [Compound A-101]	< 10 µM	> 10 µM
CCC(C)(C)N/C(=N/C(=O)c1ccc(Cl)cc1)Nc1cccc(O)n1 [Compound A-102]	< 10 µM	< 10 µM
C[C@@H](N/C(=N/C(=O)c1ccc(Cl)cc1)Nc1cccc(O)n1)C1CCCCC1 [Compound A-103]	< 10 µM	< 10 µM
O=C(/N=C(\Nc1cccc(O)n1)NC1CCOCC1)c1ccc(Cl)cc1 [Compound A-104]	> 10 µM	> 10 µM
O=C(/N=C(\Nc1cccc(O)n1)NC1CCCOC1)c1ccc(Cl)cc1 (stereo not shown) [Compound A-105]	> 10 µM	> 10 µM
COCC(C)N/C(=N/C(=O)c1ccc(Cl)cc1)Nc1cccc(O)n1 (stereo not shown) [Compound A-106]	> 10 µM	> 10 µM
CC(C)N/C(=N/C(=O)c1ccc(F)c(F)c1)Nc1cccc(O)n1 [Compound A-107]	< 10 µM	> 10 µM
O=C(/N=C(\Nc1cccc(O)n1)NC1CCC1)c1ccc(F)c(F)c1 [Compound A-108]	< 10 µM	> 10 µM

SMILES	IC50 (F1F0-ATPase)	EC50 (Ramos cells)
CC(C)N/C(=N/C(=O)c1ccc(Cl)cc1)Nc1cccc(O)n1 [Compound A-109]	< 10 µM	> 10 µM
Nc1cccc(N/C(=N\C(=O)c2ccc(F)c(F)c2)Nc2cccc(C(F)(F)F)c2)n1 [Compound A-110]	< 10 µM	> 10 µM
CCOC(=O)Nc1cccc(N/C(=N\C(=O)c2ccc(F)c(F)c2)Nc2cccc(C(F)(F)F)c2)n1 [Compound A-111]	> 10 µM	> 10 µM
CCOC(=O)Nc1cccc(N/C(=N\C(=O)c2ccc(F)c(F)c2)NCc2ccc(Cl)cc2F)n1 [Compound A-112]	< 10 µM	> 10 µM
CS(=O)(=O)Nc1cccc(N/C(=N\C(=O)c2ccc(F)c(F)c2)Nc2cccc(C(F)(F)F)c2)n1 [Compound A-113]	< 10 µM	< 10 µM
CS(=O)(=O)Nc1cccc(N/C(=N\C(=O)c2ccc(C(F)(F)F)cc2)NCc2ccccc2C(F)(F)F)n1 [Compound A-114]	< 10 µM	< 10 µM
CCS(=O)(=O)Nc1cccc(N/C(=N\C(=O)c2ccc(C(F)(F)F)cc2)NCc2ccccc2C(F)(F)F)n1 [Compound A-115]	< 10 µM	< 10 µM
O=C(/N=C(/NCc1ccccc1C(F)(F)F)Nc1cccc(NS(=O)(=O)CC(F)(F)F)n1)c1ccc(C(F)(F)F)cc1 [Compound A-116]	< 10 µM	< 10 µM
O=C(/N=C(/NCc1ccccc1C(F)(F)F)Nc1cccc(NS(=O)(=O)C2CC2)n1)c1ccc(C(F)(F)F)cc1 [Compound A-117]	< 10 µM	< 10 µM
Nc1cccc(N/C(=N\C(=O)c2cccc(C(F)(F)F)c2)Nc2cccc(C(F)(F)F)c2)n1 [Compound A-118]	> 10 µM	> 10 µM
COc1cccc(N/C(=N\C(=O)c2cccc(C(F)(F)F)c2)Nc2cccc(C(F)(F)F)c2)n1 [Compound A-119]	> 10 µM	> 10 µM
O=C(/N=C(/Nc1cccc(C(F)(F)F)c1)Nc1cccc(Br)n1)c1cccc(C(F)(F)F)c1 [Compound A-120]	> 10 µM	> 10 µM
CS(=O)(=O)Nc1cccc(N/C(=N\C(=O)c2ccc(Cl)c(F)c2)NCc2ccc(F)c(Cl)c2)n1 [Compound A-121]	< 10 µM	< 10 µM
CS(=O)(=O)Nc1cccc(N/C(=N\C(=O)c2ccc(C(F)(F)F)cc2)NCC(F)(F)F)n1 [Compound A-122]	< 10 µM	> 10 µM
CS(=O)(=O)Nc1cccc(N/C(=N\C(=O)c2ccc(C(F)(F)F)cc2)Nc2cc(F)cc(Cl)c2)n1 [Compound A-123]	< 10 µM	< 10 µM
CC(C)(C)N/C(=N/C(=O)c1ccc(Cl)cc1)Nc1cccc(NS(=O)(=O)CC(F)(F)F)n1 [Compound A-124]	< 10 µM	< 10 µM
O=C(/N=C(/NCC(F)(F)F)Nc1cccc(NS(=O)(=O)CC(F)(F)F)n1)c1ccc(Cl)cc1 [Compound A-125]	< 10 µM	< 10 µM
CC1(N/C(=N/C(=O)c2ccc(Cl)cc2)Nc2cccc(NS(=O)(=O)CC(F)(F)F)n2)CCC1 [Compound A-126]	< 10 µM	< 10 µM
O=C(/N=C(\Nc1cccc(NS(=O)(=O)CC(F)(F)F)n1)NC(C1CC1)C1CC1)c1ccc(Cl)cc1 [Compound A-127]	< 10 µM	< 10 µM
CC(C)(C)N/C(=N/C(=O)c1ccc(F)c(F)c1)Nc1cccc(NS(=O)(=O)CC(F)(F)F)n1 [Compound A-128]	< 10 µM	< 10 µM
